The record followed here is the NIST ThermoML archive (doi:10.1016/j.jct.2006.12.017).

The conditions of series [1]: Liquid; for mass density: 101.33 kPa.
Series [2] is described as follows: refractive index (Na D-line) (dimensionless). The note with it: 101.33 kPa, Liquid.

Each structure is given as a SMILES string. Numbers after ± are expanded uncertainties.

In the case of `Cc1ccc(O)cc1` [4-methylphenol], the vapor or sublimation pressure – broadly, the pressure of vapour in equilibrium with the condensed phase – in series [1] (472.85 K) is given as 95.23 ± 5 kPa. Besides, in series [2] (298.15 K), the refractive index (usually the speed of light in vacuum divided by its phase velocity in the sample) was 1.5391 ± 0.005.

As to `ClC(Cl)C(Cl)Cl` [1,1,2,2-tetrachloroethane], in series [1] (293.15 K), the mass density (usually the mass of a sample divided by its volume) worked out at 1593 ± 3.6 kg/m3. Further, in series [1] (417.15 K), the “vapor or sublimation pressure” value is 95.23 ± 5 kPa. Further, the refractive index in series [2] (293.15 K) came out at 1.494 ± 0.005.

For the compound `ClC(Cl)=C(Cl)Cl` [tetrachloroethene], in series [1] (293.15 K), the mass density was 1625 ± 3.7 kg/m3. The “vapor or sublimation pressure” value in series [1] (392.05 K) came out at 95.23 ± 5 kPa. The refractive index in series [2] (293.15 K) is 1.505 ± 0.005.

Take `Cc1ccc(C)cc1` [1,4-dimethylbenzene]: the mass density in series [1] (293.15 K) turned out to be 861 ± 1.7 kg/m3. For the same compound, the “vapor or sublimation pressure” value in series [1] (409.15 K) is on record as 95.23 ± 5 kPa. Moreover, the refractive index in series [2] (293.15 K) is recorded as 1.4858 ± 0.005.

As for `Cc1cccc(C)c1` [1,3-dimethylbenzene], in series [1] (293.15 K), the mass density was 864.4 ± 1.7 kg/m3. Besides, in series [1] (410.15 K), the “vapor or sublimation pressure” value came out at 95.23 ± 5 kPa. For the same compound, the refractive index in series [2] (293.15 K) amounted to 1.4972 ± 0.005.

In the case of `ClC=C(Cl)Cl` [trichloroethene], in series [1] (298.15 K), the mass density is recorded as 1464 ± 3.3 kg/m3. In addition, in series [1] (358.35 K), the “vapor or sublimation pressure” value stood at 95.23 ± 5 kPa. In addition, the refractive index in series [2] (298.15 K) was determined as 1.4782 ± 0.005.

Regarding `Cc1ccccc1C` [1,2-dimethylbenzene], in series [1] (293.15 K), the mass density worked out at 880.1 ± 1.9 kg/m3. In series [1] (415.35 K), the “vapor or sublimation pressure” value was determined as 95.23 ± 5 kPa.

Consider `ClCCCl` [1,2-dichloroethane], for which the mass density in series [1] (293.15 K) stood at 1252.9 ± 2.7 kg/m3. Besides, the “vapor or sublimation pressure” value in series [1] (355.05 K) is 95.23 ± 5 kPa. Further, in series [2] (293.15 K), the refractive index worked out at 1.4196 ± 0.005.
